In the supplement of paper PMC8617591:

Tests used:
[1] = system: Mycobacterium tuberculosis Erdman (autoluminescent); assay: total FIC90 (Loewe) at 90% inhibition, three-drug combination (log2); higher = more antagonistic
Method: (§1)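 DiaMOND equipotent three-drug combination dose responses (10 doses, 1.5- or 2-fold spacing, centred on IC90) against autoluminescent M. tuberculosis Erdman in 8 in vitro models. Read-out is OD600, or luminescence for the intracellular and dormancy models, normalised to untreated wells. Hill-fit Einf, AUC25 and GRinf are potency metrics; FIC50 and FIC90 are total Loewe fractional inhibitory concentrations as log2 (negative = synergy).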

[2] = system: Mycobacterium tuberculosis Erdman (autoluminescent); assay: Einf, fitted maximum growth inhibition of three-drug combination (fraction); higher = stronger maximal inhibition
Method: as §1

[3] = system: Mycobacterium tuberculosis Erdman (autoluminescent); assay: total FIC50 (Loewe) at 50% inhibition, three-drug combination (log2); higher = more antagonistic
Method: as §1

[4] = system: Mycobacterium tuberculosis Erdman (autoluminescent); assay: AUC25, normalised area under dose response up to IC25 (three-drug combination) (fraction (0-1)); higher = more potent at low dose
Method: as §1

[5] = system: Mycobacterium tuberculosis Erdman (autoluminescent); assay: GRinf, maximum normalised growth rate inhibition (three-drug combination) (unitless (-1 to 1)); higher = less effect (negative = killing)
Method: as §1

CC[C@@H](CO)NCCN[C@@H](CC)CO [ethambutol] + NNC(=O)c1ccncc1 [isoniazid] + O=[N+]([O-])c1cn2c(n1)OC[C@@H](OCc1ccc(OC(F)(F)F)cc1)C2 [pretomanid]
Conditions	AUC25, [4]	Einf, [2]	GRinf, [5]	total FIC50, [3]	total FIC90, [1]
in vitro model: acidic pH 5.7, time point: constant (~7 days, model-specific)	0.121	0.841	-0.764	0.401	–
in vitro model: acidic pH 5.7, time point: terminal (~4-5 doublings, model-specific)	0.0806	0.968	-0.36	0.77	0.544
in vitro model: intracellular J774, time point: constant = terminal	–	0.996	-0.562	–	-0.84

Conditions	AUC25, [4]	Einf, [2]	GRinf, [5]	total FIC50, [3]	total FIC90, [1]
in vitro model: butyrate, time point: constant (~7 days, model-specific)	0.0954	0.941	-0.0462	0.443	–
in vitro model: butyrate, time point: terminal (~4-5 doublings, model-specific)	0.0496	0.966	-0.0497	0.439	0.012
in vitro model: cholesterol 0.05 mM, time point: constant (~7 days, model-specific)	0.11	0.715	-0.203	0.668	–
in vitro model: cholesterol 0.05 mM, time point: terminal (~4-5 doublings, model-specific)	0.0657	0.858	0.0963	0.823	–
in vitro model: cholesterol-high 0.2 mM, time point: constant (~7 days, model-specific)	0.0675	0.881	-0.113	1.17	–
in vitro model: cholesterol-high 0.2 mM, time point: terminal (~4-5 doublings, model-specific)	0.0388	0.996	-0.623	1.18	1.18
in vitro model: dormancy (butyrate + nitrate, low O2), time point: constant (~7 days, model-specific)	0.162	0.915	0.106	0.0212	–
in vitro model: dormancy (butyrate + nitrate, low O2), time point: terminal (~4-5 doublings, model-specific)	0.105	0.982	-0.213	0.237	0.398
in vitro model: standard 7H9 glycerol, time point: constant = terminal	0.0742	0.924	0.0732	0.498	–
in vitro model: valerate, time point: constant (~7 days, model-specific)	0.109	0.867	0.0667	0.146	–
in vitro model: valerate, time point: terminal (~4-5 doublings, model-specific)	0.0768	0.92	0.0915	0.406	–

CC[C@@H](CO)NCCN[C@@H](CC)CO [ethambutol] + O=[N+]([O-])c1cn2c(n1)OC[C@@H](OCc1ccc(OC(F)(F)F)cc1)C2 [pretomanid] + CO[C@H]1/C=C/O[C@@]2(C)Oc3c(C)c(O)c4c(O)c(c(/C=N/N5CCN(C6CCCC6)CC5)c(O)c4c3C2=O)NC(=O)/C(C)=C\C=C\[C@H](C)[C@H](O)[C@@H](C)[C@@H](O)[C@@H](C)[C@H](OC(C)=O)[C@@H]1C [rifapentine]
Conditions	AUC25, [4]	Einf, [2]	GRinf, [5]	total FIC50, [3]	total FIC90, [1]
in vitro model: acidic pH 5.7, time point: constant (~7 days, model-specific)	0.109	0.881	-0.167	-0.27	–
in vitro model: acidic pH 5.7, time point: terminal (~4-5 doublings, model-specific)	0.0593	0.965	-0.136	-0.17	-0.213
in vitro model: intracellular J774, time point: constant = terminal	–	0.983	-0.509	–	-1.96

Conditions	AUC25, [4]	Einf, [2]	GRinf, [5]	total FIC50, [3]	total FIC90, [1]
in vitro model: butyrate, time point: constant (~7 days, model-specific)	0.0719	0.917	0.00142	0.274	–
in vitro model: butyrate, time point: terminal (~4-5 doublings, model-specific)	0.0544	0.96	0.0016	0.212	-0.372
in vitro model: cholesterol 0.05 mM, time point: constant (~7 days, model-specific)	0.103	0.743	-0.355	0.946	–
in vitro model: cholesterol 0.05 mM, time point: terminal (~4-5 doublings, model-specific)	0.0797	0.923	-0.204	1.14	–
in vitro model: cholesterol-high 0.2 mM, time point: constant (~7 days, model-specific)	0.0331	0.825	-0.056	1.15	–
in vitro model: cholesterol-high 0.2 mM, time point: terminal (~4-5 doublings, model-specific)	0.0353	1	-0.701	1.34	1.42
in vitro model: dormancy (butyrate + nitrate, low O2), time point: constant (~7 days, model-specific)	0.115	0.832	0.245	0.472	–
in vitro model: dormancy (butyrate + nitrate, low O2), time point: terminal (~4-5 doublings, model-specific)	0.0993	0.964	-0.137	0.154	0.383
in vitro model: standard 7H9 glycerol, time point: constant = terminal	0.0595	0.912	0.0905	0.054	–
in vitro model: valerate, time point: constant (~7 days, model-specific)	0.0932	0.882	-0.0094	0.185	–
in vitro model: valerate, time point: terminal (~4-5 doublings, model-specific)	0.0526	0.938	0.0245	0.593	0.229

CC[C@@H](CO)NCCN[C@@H](CC)CO [ethambutol] + O=[N+]([O-])c1cn2c(n1)OC[C@@H](OCc1ccc(OC(F)(F)F)cc1)C2 [pretomanid] + CO[C@H]1/C=C/O[C@@]2(C)Oc3c(C)c(O)c4c(O)c(c(/C=N/N5CCN(C)CC5)c(O)c4c3C2=O)NC(=O)/C(C)=C\C=C\[C@H](C)[C@H](O)[C@@H](C)[C@@H](O)[C@@H](C)[C@H](OC(C)=O)[C@@H]1C [rifampicin]
Conditions	AUC25, [4]	Einf, [2]	GRinf, [5]	total FIC50, [3]	total FIC90, [1]
in vitro model: acidic pH 5.7, time point: constant (~7 days, model-specific)	0.116	0.896	-0.0878	-0.207	–
in vitro model: acidic pH 5.7, time point: terminal (~4-5 doublings, model-specific)	0.0422	0.965	-0.0884	-0.118	-0.7
in vitro model: intracellular J774, time point: constant = terminal	–	0.979	-0.423	–	-2.45

Conditions	AUC25, [4]	Einf, [2]	GRinf, [5]	total FIC50, [3]	total FIC90, [1]
in vitro model: butyrate, time point: constant (~7 days, model-specific)	0.0766	0.908	0.0166	0.153	–
in vitro model: butyrate, time point: terminal (~4-5 doublings, model-specific)	0.075	0.968	-0.0125	-0.0702	-0.43
in vitro model: cholesterol 0.05 mM, time point: constant (~7 days, model-specific)	0.123	0.753	-0.232	0.599	–
in vitro model: cholesterol 0.05 mM, time point: terminal (~4-5 doublings, model-specific)	0.0708	0.852	0.216	0.863	–
in vitro model: cholesterol-high 0.2 mM, time point: constant (~7 days, model-specific)	0.0614	0.857	-0.0797	1.05	–
in vitro model: cholesterol-high 0.2 mM, time point: terminal (~4-5 doublings, model-specific)	0.0471	0.992	-0.568	1.06	0.833
in vitro model: dormancy (butyrate + nitrate, low O2), time point: constant (~7 days, model-specific)	0.102	0.883	0.315	-0.71	–
in vitro model: dormancy (butyrate + nitrate, low O2), time point: terminal (~4-5 doublings, model-specific)	0.085	0.993	-0.16	-0.599	-0.673
in vitro model: standard 7H9 glycerol, time point: constant = terminal	0.0649	0.919	0.0317	-0.222	–
in vitro model: valerate, time point: constant (~7 days, model-specific)	0.0577	0.876	0.0174	0.363	–
in vitro model: valerate, time point: terminal (~4-5 doublings, model-specific)	0.033	0.931	0.0322	0.443	-0.575

CC[C@@H](CO)NCCN[C@@H](CC)CO [ethambutol] + O=[N+]([O-])c1cn2c(n1)OC[C@@H](OCc1ccc(OC(F)(F)F)cc1)C2 [pretomanid] + NC(=O)c1cnccn1 [pyrazinamide]
Conditions	AUC25, [4]	Einf, [2]	GRinf, [5]	total FIC50, [3]	total FIC90, [1]
in vitro model: acidic pH 5.7, time point: constant (~7 days, model-specific)	0.122	0.735	-0.0977	-0.536	–
in vitro model: acidic pH 5.7, time point: terminal (~4-5 doublings, model-specific)	0.091	0.962	-0.384	0.211	-1.13
in vitro model: intracellular J774, time point: constant = terminal	–	0.983	-0.544	–	-0.753

Conditions	AUC25, [4]	Einf, [2]	GRinf, [5]	total FIC50, [3]	total FIC90, [1]
in vitro model: butyrate, time point: constant (~7 days, model-specific)	0.0885	0.898	0.0512	0.0336	–
in vitro model: butyrate, time point: terminal (~4-5 doublings, model-specific)	0.0789	0.949	0.0472	0.0804	0.185
in vitro model: cholesterol 0.05 mM, time point: constant (~7 days, model-specific)	0.13	0.709	-0.334	–	–
in vitro model: cholesterol 0.05 mM, time point: terminal (~4-5 doublings, model-specific)	0.129	0.723	-0.277	0.522	–
in vitro model: cholesterol-high 0.2 mM, time point: constant (~7 days, model-specific)	0.0837	0.876	-0.121	0.648	–
in vitro model: cholesterol-high 0.2 mM, time point: terminal (~4-5 doublings, model-specific)	0.0682	0.992	-0.572	0.65	1.05
in vitro model: dormancy (butyrate + nitrate, low O2), time point: constant (~7 days, model-specific)	0.127	0.844	0.4	-0.415	–
in vitro model: dormancy (butyrate + nitrate, low O2), time point: terminal (~4-5 doublings, model-specific)	0.11	0.967	-0.312	0.312	1.35
in vitro model: standard 7H9 glycerol, time point: constant = terminal	0.0755	0.913	0.125	0.461	–
in vitro model: valerate, time point: constant (~7 days, model-specific)	0.0698	0.882	0.0142	-0.111	–
in vitro model: valerate, time point: terminal (~4-5 doublings, model-specific)	0.0514	0.919	0.0593	0.0754	-0.361
